Consider 1 compound from US5028593A, “Tuftsin analogs” (Board of Regents, The University of Texas System, priority 1989, dated 1991).

Molecules are shown by their SMILES. Residues, ends and D or L forms follow the SMILES beside them.

The test system of one data set is Splenocytes. The data set is described as follows: Thymidine incorporation assay (growth stimulation). Format: cell-based, C57BL/6 female mouse. The note with it: compared to tuftsin; peptide 10 μg/ml; adherent and non-adherent splenocytes; 3H-thymidine. The method, then:
Spleen is obtained from C57BL/6 female mouse (approximately 3 months old). Splenocytes are prepared by teasing the spleen and passing them through a sieving screen. These cells in HBSS with 2% FBS are then layered over LSM and centrifuged. The cells at interphase are collected, washed with RPMI-1640 medium with 2% FBS, suspended in the same medium at 1×10^6 cells/ml, and plated into wells (1×10^6 cells per well). The plate is incubated for 45 min. in the incubator. Non-adherent cells in each well are transferred to a new well. Adherent cells and non-adherent cells are incubated in separate wells with peptide (10 μg/ml) for 6 hours in 1 ml RPMI-1640 medium with 2% FBS. ^3 H-thymidine (0.1 μCi per well) is then introduced. The plate is kept in the incubator for another 18 hours. Each well is washed and cells are collected into a tube using 1 ml of cold HBSS. After washing the cells twice, the cells are counted, mixed with 0.2 ml of 0.1% sodium dodecyl sulfate, and transferred to a liquid scintillation vial for determination of radioactivity.
(Dividing cells build labelled thymidine or BrdU into new DNA.)

The subject of data set [1] is Human polymorphonuclear leukocytes (PMN). The data set is described as follows: Phagocytosis assay. Format: cell-based. The note with it: compared to tuftsin; statistically significant differences at peptide concentrations of 0.1, 1.0 and 10 μg/ml; fluorescent microspheres, 15 min. The method, then: Human polymorphonuclear leukocytes (PMN) are prepared from venous blood of healthy donors. Heparinized blood is mixed with dextran and kept at 37° C. for 1 hour. The leukocyte-rich plasma is collected and centrifuged. The resulting pellet is washed with Hank's balanced salt solution (HBSS). The pellet is then suspended into HBSS, layered over Lymphocyte Separation Medium (LSM) and centrifuged. The sedimented cells are washed with HBSS. Contaminant erythrocytes are lysed by suspending the cells in sterile water for 15 seconds. The isotonicity is then restored by adding 10XHBSS. After centrifuging, the PMN are washed with HBSS, suspended in the same medium, counted, and adjusted to 1×10^6 viable cells/ml (viability>95% by trypan blue dye exclusion). Cells (0.5×10^6 cells/well) are plated in 24 well plate and placed in a 37° C. CO2 incubator for 30 min. to form a monolayer. Thereafter the supernatant is aspirated. Tuftsin or analog in 250 μl HBSS and 1.25×10^7 fluorescent microspheres (2 μm diameter) in 250 μl HBSS, are added to each well resulting in a particle to PMN ratio of 25:1, mixed, and incubated for 15 min. The supernatant is then quickly aspirated and each well washed with HBSS. […] After 10 min, % phagocytosis (% of PMN containing one or more particles) is counted under a microscope. […]

For another data set, the system named is K-562 tumor target cells. The data set is described as follows: Tumor cell cytotoxicity assay by human natural killer (NK) cells (51Cr release). Format: cell-based. The note with it: compared to tuftsin; NK cells activated 1 hour with 10 μg peptide per ml; 4 hour 51Cr release, K-562 targets. The method, then:
A leukocyte-rich buffy coat preparation obtained from leukophoresis of a normal volunteer is used. Buffy coat is diluted with HBSS, layered over LSM, and centrifuged. The mononuclear cells at interphase are collected, washed with HBSS, suspended in RPMI-1640 medium with 10% FBS, adjusted to 5×10^6 /l ml, plated on Petri dishes (10 ml each), and incubated for 1 hour. Non-adherent cells are collected, poured into bottles containing nylon wool wet with HBSS, and kept in the incubator for 1 hour. Non-adherent cells are collected, suspended in RPMI-1640 medium with 10% FBS, adjusted to 2×10^7 /ml, mixed (1:1 volume ratio) with sheep red blood cells (6×10^8 /ml), placed in 29° C. bath for 15 min., centrifuged, and again placed in 29° C. bath for another hour. Cell clumps are gently broken up, layered over LSM, and centrifuged. […]
The viability of this NK cell enriched fraction is assessed with trypan blue, and washed with RPMI-1640 medium with 5% FBS. […] Filters containing radioactive supernatants are counted on a γ counter and counts per minutes (cpm) are recorded. Percent cytotoxicity (% specific lysis) is calculated by the following formula: [formula] […] Maximum cpm is obtained by releasing the radioactivity from the target cells by treatment with Triton X-100.

As for `CC(C)C[C@H](NC(=O)[C@H](CCCCN)NC(=O)[C@@H](N)[C@@H](C)O)C(=O)N[C@@H](CCCCN)C(=O)O` [tuftsin analog, L-Thr-L-Lys-L-Leu-L-Lys] (H-TKLK-OH), the “stimulating thymidine incorporation (growth stimulation)” value in the data set with Splenocytes is “significantly greater activity in stimulating thymidine incorporation (growth stimulation) than did tuftsin”. In addition, the “stimulation of phagocytosis (% phagocytosis)” value in data set [1] was “significantly greater stimulation of phagocytosis at lower concentrations compared to tuftsin itself”. In the data set with K-562 tumor target cells, the “tumor cell cytotoxicity enhancement of human NK cells” value is “significantly greater tumor cell cytotoxicity enhancement of human NK cells”.
